Results taken from US20100267928A1, “ACTIVATABLE DIAGNOSTIC AND THERAPEUTIC COMPOUND” (priority 2007, published 2010).
Primed or numbered codes have the meaning given here. Where no end group is shown, it is not given here. The star is where a group is joined. FITC = O=C1OC2(c3ccc(O)cc3Oc3cc(O)ccc32)c2ccc(NC(=S)*)cc21; DOTA = O=C(O)CN1CCN(CC(=O)O)CCN(CC(=O)*)CCN(CC(=O)O)CC1; FITC′ = fluorescent dye, fluorescein isothiocyanate

What was measured:
[1] = test system: LN18 and U373 glioma cells; conditions: for apoptosis (binding of Alexa annexin to phosphatidyl serine; morphologic alterations), MMP-2 active / signs of cell death, MMP-2 inactive: 130 μM; for apoptosis (binding of Alexa annexin to phosphatidyl serine; morphologic alterations), MMP-2 active: APMA-containing medium without inhibitor; for signs of cell death, MMP-2 inactive: data not shown
Method: Human malignant glioma cells (U373 and LN18) were seated into 25 cm^2 culture flasks which contained 3 ml RPMI medium. This was left as it is for one day so that enough matrix metalloprotenases (MMP-2) could accumulate.
In a second test the same compounds were again dissolved in the media of 12 flasks (130 μM), however now with MMP-2 inhibitor I (Calbiochem).
As a control four small flasks were used wherein both cell lines were incubated in a one day old medium with and also without APMA.
For the confocal laser scanning microscopy an inverted LSM510 laser scanning microscope (Karl Zeiss, Jena, Deutschland) (Objectives: LD Achroplan 40×0.6, Plan Neofluar 20×0.50, 40×0.75) was used [fluorescence excitation at 488 nm (argon-ion laser) and […] (helium-neon laser)]. Superimposed images of FITC- and alexa-stained cells were produced. All measurements were performed on living, non-fixed cells for three times.

LN18 glioma cells = experiment: FACS analysis of fluorescence-stained cells; format: cell-based, human; conditions: for strongly stained cells in FACS after cleavage by active MMP-2: active versus inactive MMP-2 in culture medium; for fluorescence after cleavage by MMP-2 in comparison to the components 2 and 2A: depending on the concentration, FIG. 5
Method: (§1) The FACS analysis was performed on a Becton-Dickinson FACSCalibur. [[…] of the cell suspension (1×10^6 cells+[…] FACS buffer (DPBS buffer with 1% paraformaldehyde)]. Approximately 25.000 to 35.000 cells were measured per sample [fluorescence excitation: argon-ion laser (480 nm), fluorescence detection: 540 to 565 nm band-path filter]. The tests were repeated two times.

MMP-2 = biological target: T1, MMP-2 (Homo sapiens, UniProt P08253); experiment: Cleavage test with MMP-2, cleavage products examined by HPLC; format: biochemical; conditions: for cleavage of the compound by MMP-2 (HPLC): already active MMP-2 or proform of MMP-2 activated by APMA, 2 hours in HEPES buffer; for cleavage of the compound by MMP-2 in presence of the inhibitor (HPLC): with MMP-2 inhibitor I
T1 construct: purchased Calbiochem
T1 sequence (P08253 110-660): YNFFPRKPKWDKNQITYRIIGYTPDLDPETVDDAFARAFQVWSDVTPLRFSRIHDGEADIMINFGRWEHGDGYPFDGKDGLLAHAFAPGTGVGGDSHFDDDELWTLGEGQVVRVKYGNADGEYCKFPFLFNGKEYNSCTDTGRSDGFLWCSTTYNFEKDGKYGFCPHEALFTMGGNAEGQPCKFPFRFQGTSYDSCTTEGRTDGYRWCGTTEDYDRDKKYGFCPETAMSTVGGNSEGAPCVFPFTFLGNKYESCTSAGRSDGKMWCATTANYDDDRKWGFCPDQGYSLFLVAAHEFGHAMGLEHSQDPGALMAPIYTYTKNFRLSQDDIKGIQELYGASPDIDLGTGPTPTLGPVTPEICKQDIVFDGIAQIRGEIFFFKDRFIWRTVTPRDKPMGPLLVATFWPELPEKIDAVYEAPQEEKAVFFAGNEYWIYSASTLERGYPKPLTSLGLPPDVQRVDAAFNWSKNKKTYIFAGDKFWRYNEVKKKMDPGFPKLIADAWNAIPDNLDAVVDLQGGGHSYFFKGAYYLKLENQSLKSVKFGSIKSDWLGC
Method: The incubation in HEPES buffer with active MMP-2 was made for 2 hours.
[…]. For this 1% APMA stock solution (100 mM in DMSO) was added to the solution containing the MMP-2 proenzyme and the compounds (final APMA concentration: 1 mM, with 1% DMSO).
In the following also an incubation of 2 hours was performed. In addition the tests were made with the MMP-2 inhibitor I (Calbiochem). All six compounds were, as a control, also incubated into HEPES buffer without MMP-2 for two hours.

[2] = test system: LN18 and U373 glioma cells; experiment: Confocal laser scanning microscopy (CLSM) and FACS, staining of cell nuclei; format: cell-based, human; conditions: 130 μM; for staining of the cell nuclei, MMP-2 active: APMA-containing medium without inhibitor; for staining of the cell nuclei, MMP-2 inactive: APMA-containing medium, MMP-2 inactive/inhibited
Method: as §1

[3] = test system: U373 and LN18 glioma cells; experiment: Magnetic resonance relaxometry on glioma cell centrifugates; format: cell-based, human; conditions: for shortening of the T1 time, inhibitor-free medium: without MMP-2 inhibitor
Method: Human U373 and LN18 glioma cells were grown in 25 cm^2 culture flasks (70% confluence). Accutase™ (PAA laboratories, Pasching, Austria) was added to strip off the cells from the bottom of the culture flasks.
In a first try the cells were collected and subsequently distributed on 16 Eppendorf-vials (6×10^6 cells per vial). The cells in the first four vials were used as a control (only RPMI medium with and also without APMA, two cell lines). […] In the following it was washed for three times with PBS and centrifuged with 800 rpm (rounds per minute) for 5 minutes.
In another test adherent U373 and LN18 glioma cells were incubated with the compounds 2A, 4A and […], and were stripped off in the following and collected in Eppendorf vials for the MRT. The MRT analysis of the Eppendorf vials with the cell centrifugates were performed in a 3 Tesla full body MRT apparatus (Trio, Siemens Magnetom Sonata, circular polarised knee coil).
The following spin echo sequence was used to obtain sagittal T1-weighted MRT images.
[…] TE (echo time): 7.4 ms, flip angle 90°, averages: 1, concatenations: 2, measurements: 2, number of slices: 19, distance factor: 30%, slice thickness: 3 mm, field of view read: 180 mm, field of view phase: 100%, base resolution: 256, phase resolution: 100%, voxel size: 0.7×0.7×3.0 mm, scan time: 1:48 min.
By means of multiple spin echo measurements (TR: 20-8000 ms, 50 different TR values) different signal intensities were measured through which the T1 relaxation time could be determined.
TR: 20-8000 ms (50 different TR values), TE: 6.4 ms, flip angle 90°, averages: 1, measurements; 1, number of slices: 1, slice thickness: 1 mm, field of view read: 120 mm, field of view phase: 87.5, base resolution 128, phase resolution; 100% voxel size: 0.9×0.9×1 mm.
For the analysis and calculations a Matlab programme (Math Works, Natick, Mass., USA) was used. The T1 values were determined via a two-parameter fit. All signal curves were examined and rated as being mono-exponential. All tests were performed three times.

With `CCCCCCCC/C=C\CCCCCCCC(=O)NO` [MMP-2 inhibitor I, reference compound] the “damage of the cell vitality by additive in the medium” value ([1]; additive alone in RPMI medium, LN18 and U373 glioma cells) was “did not result in a damage of the cell vitality”.
“K(DOTA)-G-PLGLA-GGPKKKRKVRRRR-K(FITC)-GG-K(DOTA) (K(DOTA)GPLGLAGGPKKKRKVRRRRK(FITC)GGK(DOTA)) [V4]” was tested, and the “strongly stained cells in FACS after cleavage by active MMP-2” value (LN18 glioma cells; LN18 glioma cells) was “considerable increase of the strongly stained cells”, the “displacement of the peak of the FACS histogram to the right, V4 versus V2” value (LN18 glioma cells; LN18 glioma cells, after cleavage by active MMP-2) was “more pronounced” and the “fluorescence after cleavage by MMP-2 in comparison to the components 2 and 2A” value (shortened to “fluorescence after cleavage”) (LN18 glioma cells) was “stronger fluorescence”. The “apoptosis (binding of Alexa annexin to phosphatidyl serine; morphologic alterations), MMP-2 active” value [1] was “apoptotic”, the “signs of cell death, MMP-2 inactive” value [1] was “did not show any signs of cell death” and the “cleavage of the compound by MMP-2 (HPLC)” value (MMP-2) was “cleaved”. The “cleavage of the compound by MMP-2 in presence of the inhibitor (HPLC)” value (“cleavage … of the inhibitor (HPLC)” for short) (MMP-2) was “prevented”, the “staining of the cell nuclei, MMP-2 active” value [2] was “staining of the cell nuclei can only be observed after the cleavage” and the “staining of the cell nuclei, MMP-2 inactive” value (“staining … MMP-2 inactive” for short) [2] was “few stained cell nuclei”.
In the case of “PKKKRKV-K(FITC)-GG-K(DOTA)-PLGVR-K(DOTA) (PKKKRKVKGGKPLGVRK) [V2]”, the “strongly stained cells in FACS after cleavage by active MMP-2” value (LN18 glioma cells; LN18 glioma cells) is reported as “considerable increase of the strongly stained cells”, the “signs of cell death, MMP-2 inactive” value [1] is reported as “did not show any signs of cell death” and the “cleavage of the compound by MMP-2 (HPLC)” value (MMP-2) is reported as “cleaved”. For the same compound, the “cleavage … of the inhibitor (HPLC)” value (MMP-2) was “prevented” and the “staining … MMP-2 inactive” value [2] was “few stained cell nuclei”.
In the case of “PKKKRKV-K(FITC)-GG-K(GdDOTA)-PLGVR-K(GdDOTA) (PKKKRKVKGGKPLGVRK; not fully specified) [V2A]”, the “shortening of the T1 time in comparison to the native control, inhibitor-containing medium” value ([3]; 26 and 130 μM, with MMP-2 inhibitor) is reported as “minor shortening of the T1 time”, the “signal intensity at TR: 400 ms, active MMP-2 versus inactive MMP-2” value ([3]; LN18 glioma cell centrifugates, 26 and 130 μm, washed and centrifuged three times) is reported as “considerably higher signal intensity” and the “shortening of the T1 time, inhibitor-free medium” value [3] is reported as “more distinct shortening of the T1 time”. The “signs of cell death, MMP-2 inactive” value [1] was “did not show any signs of cell death”, the “cleavage of the compound by MMP-2 (HPLC)” value (MMP-2) was “cleaved” and the “cleavage … of the inhibitor (HPLC)” value (MMP-2) was “prevented”. The “staining … MMP-2 inactive” value [2] was “few stained cell nuclei”.
In the case of “K-(GdDOTA)-GG-K(FITC)-RRRR-G-PLGLA-G-RRRR-K(FITC)-GG-K(GdDOTA) (K(DOTA)GGK(FITC′)RRRRGPLGLAGRRRRK(FITC′)GGK(DOTA)-NH2; also: DOTA groups complexed with Gd (GdDOTA)) [V5A]”, the “shortening of the T1 time in comparison to component 2A, inhibitor-free medium” value ([3]; depending on the concentration) is reported as “stronger shortening of the T1 time”, the “shortening of the T1 time, inhibitor-free medium” value [3] is reported as “more distinct shortening of the T1 time” and the “fluorescence after cleavage” value (LN18 glioma cells) is reported as “stronger fluorescence”. For the same compound, the “apoptosis (binding of Alexa annexin to phosphatidyl serine; morphologic alterations), MMP-2 active” value [1] was “apoptotic”, the “cleavage of the compound by MMP-2 (HPLC)” value (MMP-2; listed as 5A) was “cleaved” and the “cleavage of the compound by MMP-2 (HPLC)” value (MMP-2; listed as V5a) was “split into two new peaks”. For the same compound, the “cleavage … of the inhibitor (HPLC)” value (MMP-2) was “prevented” and the “staining … MMP-2 inactive” value [2] was “few stained cell nuclei”.
In the case of “K(DOTA)-GG-K(FITC)-RRRR-G-PLGLA-G-RRRR-K(FITC)-GG-K(DOTA) (K(DOTA)GGK(FITC)RRRRGPLGLAGRRRRK(FITC)GGK(DOTA)) [V5]”, the “fluorescence after cleavage” value (LN18 glioma cells) is reported as “stronger fluorescence”, the “apoptosis (binding of Alexa annexin to phosphatidyl serine; morphologic alterations), MMP-2 active” value [1] is reported as “apoptotic” and the “signs of cell death, MMP-2 inactive” value [1] is reported as “did not show any signs of cell death”. The “cleavage of the compound by MMP-2 (HPLC)” value (MMP-2) was “split into two new peaks”, the “cleavage of the compound by MMP-2 (HPLC)” value (MMP-2; listed as 5) was “cleaved” and the “cleavage … of the inhibitor (HPLC)” value (MMP-2) was “prevented”. For the same compound, the “staining of the cell nuclei, MMP-2 active” value [2] was “accumulates in the cell nuclei”, the “staining … MMP-2 inactive” value [2] was “the cells remain unstained” and the “staining … MMP-2 inactive” value ([2]; listed as 5) was “few stained cell nuclei”.
